According to patent US20260000692A1, “Substituted N-(Pyridin-2-yl)Acetamide Derivatives as CDK12/13 Inhibitors” (Aurigene Oncology Limited, priority 2022, published 2026):

Biological target: CDK12 (Homo sapiens, UniProt Q9NYV4)
Experiment: Biochemical assay for CDK12 (LANCE TR-FRET, IC50 determination)
Details: for inhibition at 10 µM: compound at 10 μM, read-out: CDK12 % Inhibition @ 10 μM; for IC50: CDK12, IC50 class, read-out: IC50 μM (in range)
Procedure, shortened: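 30 nM CDK12 phosphorylated 100 nM ULight-4E-BP1 (Thr37/Thr46) peptide at 100 µM ATP, as printed, in HEPES pH 7.5 buffer with MgCl2 and DTT. Compound and enzyme were preincubated 60 min, then reacted 60 min at room temperature before stopping with EDTA and Eu anti-phospho antibody. TR-FRET 665/615 ratio gave sigmoidal IC50 fits.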

Chain of CDK12 (Q9NYV4 whole entry): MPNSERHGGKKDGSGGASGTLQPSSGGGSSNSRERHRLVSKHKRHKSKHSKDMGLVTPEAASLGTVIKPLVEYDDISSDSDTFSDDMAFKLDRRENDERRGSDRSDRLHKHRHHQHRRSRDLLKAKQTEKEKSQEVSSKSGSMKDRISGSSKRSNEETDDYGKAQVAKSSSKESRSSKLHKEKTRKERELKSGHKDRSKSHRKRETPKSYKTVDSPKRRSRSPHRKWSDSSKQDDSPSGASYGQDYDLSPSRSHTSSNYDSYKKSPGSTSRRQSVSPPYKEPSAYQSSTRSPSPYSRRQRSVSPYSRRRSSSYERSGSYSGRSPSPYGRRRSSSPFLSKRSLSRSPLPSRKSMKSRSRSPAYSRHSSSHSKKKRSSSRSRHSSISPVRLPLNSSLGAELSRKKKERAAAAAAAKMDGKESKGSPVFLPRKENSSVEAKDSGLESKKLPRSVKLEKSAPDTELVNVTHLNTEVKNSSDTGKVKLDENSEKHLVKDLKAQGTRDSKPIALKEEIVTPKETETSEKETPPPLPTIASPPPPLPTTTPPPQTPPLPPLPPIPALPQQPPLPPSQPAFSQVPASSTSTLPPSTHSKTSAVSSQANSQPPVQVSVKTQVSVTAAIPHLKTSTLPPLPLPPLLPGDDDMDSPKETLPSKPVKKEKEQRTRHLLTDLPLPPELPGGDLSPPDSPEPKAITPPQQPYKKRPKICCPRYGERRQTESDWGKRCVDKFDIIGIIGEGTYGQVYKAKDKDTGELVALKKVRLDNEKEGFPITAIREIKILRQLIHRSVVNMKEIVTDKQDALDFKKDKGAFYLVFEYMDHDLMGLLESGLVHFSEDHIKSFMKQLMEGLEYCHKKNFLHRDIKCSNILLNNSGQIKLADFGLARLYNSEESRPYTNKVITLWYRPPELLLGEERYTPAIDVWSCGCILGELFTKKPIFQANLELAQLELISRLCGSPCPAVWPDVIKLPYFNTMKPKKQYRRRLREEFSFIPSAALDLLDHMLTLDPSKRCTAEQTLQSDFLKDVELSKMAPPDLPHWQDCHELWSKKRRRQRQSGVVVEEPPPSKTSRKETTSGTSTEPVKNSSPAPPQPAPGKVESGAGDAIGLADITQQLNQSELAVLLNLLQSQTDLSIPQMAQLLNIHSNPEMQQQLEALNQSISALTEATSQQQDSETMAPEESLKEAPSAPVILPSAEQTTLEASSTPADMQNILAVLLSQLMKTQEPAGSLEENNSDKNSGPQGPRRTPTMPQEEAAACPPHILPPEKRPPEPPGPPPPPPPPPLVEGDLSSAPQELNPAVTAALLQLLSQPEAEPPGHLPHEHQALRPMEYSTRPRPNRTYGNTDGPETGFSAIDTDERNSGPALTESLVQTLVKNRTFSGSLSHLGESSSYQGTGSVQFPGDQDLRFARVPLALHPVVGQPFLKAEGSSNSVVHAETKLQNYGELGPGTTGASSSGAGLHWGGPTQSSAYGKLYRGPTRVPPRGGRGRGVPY
Chain of CDK12 (O75909 whole entry partner): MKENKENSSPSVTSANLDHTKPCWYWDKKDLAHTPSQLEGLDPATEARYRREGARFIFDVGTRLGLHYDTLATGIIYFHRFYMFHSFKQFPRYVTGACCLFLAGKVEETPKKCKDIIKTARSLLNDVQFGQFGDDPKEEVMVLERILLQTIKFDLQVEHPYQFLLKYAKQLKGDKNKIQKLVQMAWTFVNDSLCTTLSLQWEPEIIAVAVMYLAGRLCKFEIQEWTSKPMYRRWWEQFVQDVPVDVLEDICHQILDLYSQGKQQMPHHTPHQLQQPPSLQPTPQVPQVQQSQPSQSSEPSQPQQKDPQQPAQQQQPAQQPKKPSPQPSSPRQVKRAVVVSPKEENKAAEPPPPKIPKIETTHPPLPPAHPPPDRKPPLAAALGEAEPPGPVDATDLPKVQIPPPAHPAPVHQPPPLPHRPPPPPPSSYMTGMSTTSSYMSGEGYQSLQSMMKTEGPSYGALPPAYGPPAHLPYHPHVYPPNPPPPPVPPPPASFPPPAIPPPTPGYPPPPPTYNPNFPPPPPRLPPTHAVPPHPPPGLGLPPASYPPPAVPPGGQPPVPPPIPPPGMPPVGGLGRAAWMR

**Q.** With `COc1cc(NC(=O)C(C)(C)c2ccc(C3=CCCN(C#N)C3)nc2)ncc1Cl` [Compound 110, N-(5-chloro-4-methoxypyridin-2-yl)-2-(1′-cyano-1′,2′,5′,6′-tetrahydro-[2,3′-bipyridin]-5-yl)-2-methylpropanamide] as the compound, how does the inhibition at 10 µM read?
**A.** Its inhibition at 10 µM is 57%.

**Q.** What does the source list for `COc1cc(NC(=O)Cc2ccc(C3=CCCN(C#N)C3)cn2)ncc1Cl` [Compound 111, N-(5-chloro-4-methoxypyridin-2-yl)-2-(1′-cyano-1′,2′,5′,6′-tetrahydro-[3,3′-bipyridin]-6-yl)acetamide]?
**A.** IC50: 0.01 to 0.1 µM; inhibition at 10 µM: 94%

**Q.** For `COc1cc(NC(=O)Cc2ccc(C3=CCCN(C#N)C3)cc2Cl)ncc1Cl` [Compound 112, 2-(2-chloro-4-(1-cyano-1,2,5,6-tetrahydropyridin-3-yl)phenyl)-N-(5-chloro-4-methoxypyridin-2-yl)acetamide], which IC50 is on record?
**A.** The IC50 was 0.01 to 0.1 µM.

**Q.** What about the inhibition at 10 µM of the same compound?
**A.** Its inhibition at 10 µM is 90%.

**Q.** How did the IC50 turn out when `COc1cc(NC(=O)Cc2ccc(C3=CCCN(C#N)C3)cc2F)ncc1Cl` [Compound 113, N-(5-chloro-4-methoxypyridin-2-yl)-2-(4-(1-cyano-1,2,5,6-tetrahydropyridin-3-yl)-2-fluorophenyl)acetamide] was run?
**A.** The IC50 was 0.01 to 0.1 µM.

**Q.** What about the inhibition at 10 µM of the same compound?
**A.** The inhibition at 10 µM was 92%.

**Q.** `COc1cc(NC(=O)Cc2ccc(C3=CCCN(C#N)C3)cc2)ncc1Cl` [Compound 114, N-(5-chloro-4-methoxypyridin-2-yl)-2-(4-(1-cyano-1,2,5,6-tetrahydropyridin-3-yl)phenyl)acetamide] was tested. Which IC50 did it give?
**A.** Its IC50 is less than 0.01 µM.

**Q.** And the inhibition at 10 µM?
**A.** The inhibition at 10 µM was 91%.

**Q.** What does the source list for `COc1cc(NC(=O)Cc2ccc(C3=CC4CN(C#N)CC4C3)cc2)ncc1Cl` (stereo not shown) [Compound 115, N-(5-chloro-4-methoxypyridin-2-yl)-2-(4-(2-cyano-1,2,3,3a,4,6a-hexahydrocyclopenta[c]pyrrol-5-yl)phenyl)acetamide]?
**A.** IC50: 0.01 to 0.1 µM; inhibition at 10 µM: 98%

**Q.** How did the inhibition at 10 µM turn out when `COc1cc(NC(=O)Cc2ccc(C3=CCCN(C#N)C3)c(OC)c2)ncc1Cl` [Compound 116, N-(5-chloro-4-methoxypyridin-2-yl)-2-(4-(1-cyano-1,2,5,6-tetrahydropyridin-3-yl)-3-methoxyphenyl)acetamide] was run?
**A.** The inhibition at 10 µM was 23%.

**Q.** With `COc1cc(NC(=O)Cc2cnc(C3=CCCN(C#N)C3)c(OC)c2)ncc1Cl` [Compound 117, N-(5-chloro-4-methoxypyridin-2-yl)-2-(1′-cyano-3-methoxy-1′,2′,5′,6′-tetrahydro-[2,3′-bipyridin]-5-yl)acetamide] as the compound, how does the IC50 read?
**A.** Its IC50 is less than 0.01 µM.

**Q.** And the inhibition at 10 µM?
**A.** The inhibition at 10 µM was 88%.

**Q.** With `CN1CC[C@H](Oc2cc(NC(=O)Cc3ccc(C4CCN(C#N)CC4)nc3)ncc2Cl)C1` [Compound 118, (S)-N-(5-chloro-4-((1-methylpyrrolidin-3-yl)oxy)pyridin-2-yl)-2-(6-(1-cyanopiperidin-4-yl)pyridin-3-yl)acetamide] as the compound, how does the IC50 read?
**A.** Its IC50 is greater than 0.1 µM.

**Q.** And the inhibition at 10 µM?
**A.** The inhibition at 10 µM was 81%.

**Q.** With `CN1CC[C@@H](Oc2cc(NC(=O)Cc3ccc(C4CCN(C#N)CC4)nc3)ncc2Cl)C1` [Compound 119, (R)-N-(5-chloro-4-((1-methylpyrrolidin-3-yl)oxy)pyridin-2-yl)-2-(6-(1-cyanopiperidin-4-yl)pyridin-3-yl)acetamide] as the compound, how does the IC50 read?
**A.** Its IC50 is greater than 0.1 µM.

**Q.** What about the inhibition at 10 µM of the same compound?
**A.** The inhibition at 10 µM was 78%.

**Q.** How did the IC50 turn out when `COc1cc(NC(=O)Cc2cnc(C3=CCN(C#N)CC3)c(OC)c2)ncc1Cl` [Compound 120, N-(5-chloro-4-methoxypyridin-2-yl)-2-(1′-cyano-3-methoxy-1′,2′,3′,6′-tetrahydro-[2,4′-bipyridin]-5-yl)acetamide] was run?
**A.** Its IC50 is less than 0.01 µM.

**Q.** And the inhibition at 10 µM?
**A.** Its inhibition at 10 µM is 89%.

**Q.** With `COc1cc(NC(=O)Cc2cnc(C3CCN(C#N)CC3)c(OC)c2)ncc1Cl` [Compound 121, N-(5-chloro-4-methoxypyridin-2-yl)-2-(6-(1-cyanopiperidin-4-yl)-5-methoxypyridin-3-yl)acetamide] as the compound, how does the IC50 read?
**A.** The IC50 was less than 0.01 µM.

**Q.** What about the inhibition at 10 µM of the same compound?
**A.** Its inhibition at 10 µM is 82%.

**Q.** How did the IC50 turn out when `COc1cc(CC(=O)Nc2cc(O[C@@H]3CCOC3)c(Cl)cn2)cnc1C1=CCN(C#N)CC1` [Compound 122, (R)-N-(5-chloro-4-((tetrahydrofuran-3-yl)oxy)pyridin-2-yl)-2-(1′-cyano-3-methoxy-1′,2′,3′,6′-tetrahydro-[2,4′-bipyridin]-5-yl)acetamide] was run?
**A.** Its IC50 is less than 0.01 µM.

**Q.** And the inhibition at 10 µM?
**A.** The inhibition at 10 µM was 90%.

**Q.** How did the IC50 turn out when `COc1cc(CC(=O)Nc2cc(O[C@@H]3CCOC3)c(Cl)cn2)cnc1C1CCN(C#N)CC1` [Compound 123, (R)-N-(5-chloro-4-((tetrahydrofuran-3-yl)oxy)pyridin-2-yl)-2-(6-(1-cyanopiperidin-4-yl)-5-methoxypyridin-3-yl)acetamide] was run?
**A.** Its IC50 is less than 0.01 µM.

**Q.** And the inhibition at 10 µM?
**A.** The inhibition at 10 µM was 86%.

**Q.** `COc1cc(NC(=O)Cc2ccc(C3CCN(C#N)CC3)nc2)ncc1C1CC1` [Compound 124, 2-(6-(1-cyanopiperidin-4-yl)pyridin-3-yl)-N-(5-cyclopropyl-4-methoxypyridin-2-yl)acetamide] was tested. Which IC50 did it give?
**A.** The IC50 was greater than 0.1 µM.

**Q.** And the inhibition at 10 µM?
**A.** The inhibition at 10 µM was 86%.

**Q.** Which results are given for `CN1CCC[C@H](Oc2cc(NC(=O)Cc3ccc(C4CCN(C#N)CC4)nc3)ncc2Cl)C1` [Compound 125, (S)-N-(5-chloro-4-((1-methylpiperidin-3-yl)oxy)pyridin-2-yl)-2-(6-(1-cyanopiperidin-4-yl)pyridin-3-yl)acetamide]?
**A.** IC50: > 0.1 µM; inhibition at 10 µM: 72%

**Q.** How did the IC50 turn out when `CN1CCC[C@@H](Oc2cc(NC(=O)Cc3ccc(C4CCN(C#N)CC4)nc3)ncc2Cl)C1` [Compound 126, (R)-N-(5-chloro-4-((1-methylpiperidin-3-yl)oxy)pyridin-2-yl)-2-(6-(1-cyanopiperidin-4-yl)pyridin-3-yl)acetamide] was run?
**A.** The IC50 was greater than 0.1 µM.

**Q.** And the inhibition at 10 µM?
**A.** The inhibition at 10 µM was 52%.

**Q.** `COc1cc(NC(=O)Cc2ccc(C3=CCN(C#N)CC3)cn2)ncc1Cl` [Compound 127, N-(5-chloro-4-methoxypyridin-2-yl)-2-(1′-cyano-1′,2′,3′,6′-tetrahydro-[3,4′-bipyridin]-6-yl)acetamide] was tested. Which IC50 did it give?
**A.** The IC50 was 0.01 to 0.1 µM.

**Q.** What about the inhibition at 10 µM of the same compound?
**A.** Its inhibition at 10 µM is 86%.

**Q.** Which IC50 does the source give for `CNC(=O)[C@H](C)Oc1cc(NC(=O)Cc2cnc(C3CCN(C#N)CC3)c(OC)c2)ncc1Cl` [Compound 128, (S)-2-((5-chloro-2-(2-(6-(1-cyanopiperidin-4-yl)-5-methoxypyridin-3-yl)acetamido)pyridin-4-yl)oxy)-N-methylpropanamide] here?
**A.** Its IC50 is less than 0.01 µM.

**Q.** And the inhibition at 10 µM?
**A.** The inhibition at 10 µM was 83%.

**Q.** Which IC50 does the source give for `CN1CCC(Oc2cc(NC(=O)Cc3ccc(C4CCN(C#N)CC4)nc3)ncc2Cl)CC1` [Compound 129, N-(5-chloro-4-((1-methylpiperidin-4-yl)oxy)pyridin-2-yl)-2-(6-(1-cyanopiperidin-4-yl)pyridin-3-yl)acetamide] here?
**A.** The IC50 was 0.01 to 0.1 µM.

**Q.** What about the inhibition at 10 µM of the same compound?
**A.** The inhibition at 10 µM was 94%.

**Q.** `COc1cc(NC(=O)Cc2ccc(-c3ccc(CNC#N)nc3)nc2)ncc1Cl` [Compound 130, N-(5-chloro-4-methoxypyridin-2-yl)-2-(6′-(cyanamidomethyl)-[2,3′-bipyridin]-5-yl)acetamide] was tested. Which IC50 did it give?
**A.** Its IC50 is 0.01 to 0.1 µM.

**Q.** What about the inhibition at 10 µM of the same compound?
**A.** Its inhibition at 10 µM is 95%.

**Q.** Which results are given for `COc1cc(NC(=O)Cc2ccc(-c3ccc(CN(C)C#N)nc3)nc2)ncc1Cl` [Compound 131, N-(5-chloro-4-methoxypyridin-2-yl)-2-(6′-((N-methylcyanamido)methyl)-[2,3′-bipyridin]-5-yl)acetamide]?
**A.** IC50: 0.01 to 0.1 µM; inhibition at 10 µM: 93%

**Q.** Which IC50 does the source give for `COc1cc(NC(=O)Cc2ccc(-c3ccc(CN(C#N)C(C)C)nc3)nc2)ncc1Cl` [Compound 132, N-(5-chloro-4-methoxypyridin-2-yl)-2-(6′-((N-isopropylcyanamido)methyl)-[2,3′-bipyridin]-5-yl)acetamide] here?
**A.** The IC50 was greater than 0.1 µM.

**Q.** What about the inhibition at 10 µM of the same compound?
**A.** The inhibition at 10 µM was 93%.

**Q.** `COc1cc(NC(=O)Cc2ccc(C34CCN(C#N)CC3C4)nc2)ncc1Cl` (stereo not shown) [Compound 133] was tested. Which IC50 did it give?
**A.** Its IC50 is less than 0.01 µM.

**Q.** And the inhibition at 10 µM?
**A.** The inhibition at 10 µM was 94%.

**Q.** Which IC50 does the source give for `COc1cc(NC(=O)Cc2ccc(N3CCN(C#N)CC3)nc2)ncc1Cl` [Compound 134, N-(5-chloro-4-methoxypyridin-2-yl)-2-(6-(4-cyanopiperazin-1-yl)pyridin-3-yl)acetamide] here?
**A.** The IC50 was 0.01 to 0.1 µM.

**Q.** What about the inhibition at 10 µM of the same compound?
**A.** Its inhibition at 10 µM is 82%.

**Q.** Which results are given for `CP(C)(=O)c1cc(NC(=O)Cc2ccc(C3=CCCN(C#N)C3)nc2)ncc1Cl` [Compound 135, N-(5-chloro-4-(dimethylphosphoryl)pyridin-2-yl)-2-(1′-cyano-1′,2′,5′,6′-tetrahydro-[2,3′-bipyridin]-5-yl)acetamide]?
**A.** IC50: > 0.1 µM; inhibition at 10 µM: 78%

**Q.** Which IC50 does the source give for `N#CN1CC=C(c2ccc(CC(=O)Nc3cc(OC4CC5(CNC5)C4)c(Cl)cn3)cn2)CC1` [Compound 137, N-(4-((2-azaspiro[3.3]heptan-6-yl)oxy)-5-chloropyridin-2-yl)-2-(1′-cyano-1′,2′,3′,6′-tetrahydro-[2,4′-bipyridin]-5-yl)acetamide] here?
**A.** Its IC50 is 0.01 to 0.1 µM.

**Q.** What about the inhibition at 10 µM of the same compound?
**A.** Its inhibition at 10 µM is 89%.

**Q.** `CC1(C)CCC(Oc2cc(NC(=O)Cc3ccc(C4=CCN(C#N)CC4)nc3)ncc2Cl)CN1` (stereo not shown) [Compound 138, N-(5-chloro-4-((6,6-dimethylpiperidin-3-yl)oxy)pyridin-2-yl)-2-(1′-cyano-1′,2′,3′,6′-tetrahydro-[2,4′-bipyridin]-5-yl)acetamide] was tested. Which IC50 did it give?
**A.** The IC50 was greater than 0.1 µM.

**Q.** What about the inhibition at 10 µM of the same compound?
**A.** Its inhibition at 10 µM is 80%.

**Q.** Which results are given for `CC1(C)CC(Oc2cc(NC(=O)Cc3ccc(C4=CCN(C#N)CC4)nc3)ncc2Cl)CCN1` (stereo not shown) [Compound 139, N-(5-chloro-4-((2,2-dimethylpiperidin-4-yl)oxy)pyridin-2-yl)-2-(1′-cyano-1′,2′,3′,6′-tetrahydro-[2,4′-bipyridin]-5-yl)acetamide]?
**A.** IC50: 0.01 to 0.1 µM; inhibition at 10 µM: 95%

**Q.** How did the IC50 turn out when `COc1cc(NC(=O)Cc2ccc(-c3ccc(C#N)nc3)nc2)ncc1Cl` [Compound 140, N-(5-chloro-4-methoxypyridin-2-yl)-2-(6′-cyano-[2,3′-bipyridin]-5-yl)acetamide] was run?
**A.** Its IC50 is greater than 0.1 µM.

**Q.** What about the inhibition at 10 µM of the same compound?
**A.** Its inhibition at 10 µM is 83%.

**Q.** `COc1cc(NC(=O)Cc2ccc(-c3cnc(C#N)nc3)nc2)ncc1Cl` [Compound 141, N-(5-chloro-4-methoxypyridin-2-yl)-2-(6-(2-cyanopyrimidin-5-yl)pyridin-3-yl)acetamide] was tested. Which IC50 did it give?
**A.** Its IC50 is 0.01 to 0.1 µM.

**Q.** And the inhibition at 10 µM?
**A.** Its inhibition at 10 µM is 92%.

**Q.** `COc1cc(NC(=O)Cc2ccc(-c3ccnc(C#N)c3)nc2)ncc1Cl` [Compound 142, N-(5-chloro-4-methoxypyridin-2-yl)-2-(2′-cyano-[2,4′-bipyridin]-5-yl)acetamide] was tested. Which IC50 did it give?
**A.** The IC50 was 0.01 to 0.1 µM.
